Results reported in ChEMBL document CHEMBL1144199, “Design, synthesis, and biological evaluation of new mitonafide derivatives as potential antitumor drugs” (Bioorg Med Chem, 2008).

Legend:
[1] = tested on: DNA; experiment: Displacement of ethidium bromide from calf thymus DNA assessed as ratio of concentration of ethidium in ethidium DNA complex to drug concentration by fluorometric assay; assay type: nucleic-acid assay; details: Bos taurus
[2] = tested on: HT-29; experiment: Cytotoxicity against human HT-29 cells after 144 hrs; assay type: functional, cell-based; details: HT-29, 144 h

Row | Structure (SMILES) | Kapp [1] | IC50 [2] [nM]
1 | CN(C)CCCNc1ccc2c3c(cccc13)C(=O)N(CCCN(C)CCCN1C(=O)c3cccc4c(NCCCN(C)C)ccc(c34)C1=O)C2=O | 1.1 ×10⁸ /M | 100
2 | CN(C)CCNc1ccc2c3c(cccc13)C(=O)N(CCCN(C)CCCN1C(=O)c3cccc4c(NCCN(C)C)ccc(c34)C1=O)C2=O | 2.3 ×10⁸ /M | 60
3 | CN(C)CCCNc1c(N)cc2c3c(cccc13)C(=O)N(CCCN(C)C)C2=O | 3.9 ×10⁷ /M | 16800
4 | CCN(CC)CCCNc1ccc2c3c(cccc13)C(=O)N(CCN(C)C)C2=O | 1.9 ×10⁷ /M | 890
5 | CN(C)CCNC(=O)c1cccc2c(=O)c3ccccc3[nH]c12 | – | 1700
6 | CN(C)CCN1C(=O)c2cccc3cc([N+](=O)[O-])cc(c23)C1=O [MITONAFIDE] | 3.4 ×10⁶ /M | 220
7 | CN(C)CCCNc1c([N+](=O)[O-])cc2c3c(cccc13)C(=O)N(CCCN(C)C)C2=O | 7 ×10⁷ /M | 140
8 | NCCNc1c([N+](=O)[O-])cc2c3c(cccc13)C(=O)N(CCN)C2=O | 5.3 ×10⁷ /M | 860
9 | CN(C)CCCNc1ccc2c3c(cccc13)C(=O)N(CCN(C)C)C2=O | 1.9 ×10⁷ /M | 930
10 | CN(C)CCNc1c(N)cc2c3c(cccc13)C(=O)N(CCN(C)C)C2=O | 4.5 ×10⁷ /M | 810
11 | CCN(CC)CCNc1ccc2c3c(cccc13)C(=O)N(CCN(C)C)C2=O | 2.3 ×10⁷ /M | 2100
12 | CN(C)CCNc1ccc2c3c(cccc13)C(=O)N(CCN(C)C)C2=O | 2.3 ×10⁷ /M | 160
13 | CN(C)CCCNc1ccc2c3c(cccc13)C(=O)N(CCCN(C)C)C2=O | 1.3 ×10⁷ /M | 1400
14 | CN(C)CCN1C(=O)c2cccc3c(NCCNCCO)ccc(c23)C1=O | 2.4 ×10⁷ /M | 770
15 | CN(C)CCCN1C(=O)c2cccc3c(NCCN(C)C)ccc(c23)C1=O | 1.5 ×10⁷ /M | 1700
16 | CN(C)CCNC(=O)c1ccc(NCCN(C)C)c2c(=O)c3ccccc3[nH]c12 | – | 44
17 | CN(C)CCNc1c([N+](=O)[O-])cc2c3c(cccc13)C(=O)N(CCN(C)C)C2=O | 7.7 ×10⁷ /M | 120
